Here are results for three molecules from PMC11584170 (ACS chemical biology, 2023).

One data set has as its target T1, ERRγ (Homo sapiens, UniProt P62508).
T1 sequence (P62508 1-458): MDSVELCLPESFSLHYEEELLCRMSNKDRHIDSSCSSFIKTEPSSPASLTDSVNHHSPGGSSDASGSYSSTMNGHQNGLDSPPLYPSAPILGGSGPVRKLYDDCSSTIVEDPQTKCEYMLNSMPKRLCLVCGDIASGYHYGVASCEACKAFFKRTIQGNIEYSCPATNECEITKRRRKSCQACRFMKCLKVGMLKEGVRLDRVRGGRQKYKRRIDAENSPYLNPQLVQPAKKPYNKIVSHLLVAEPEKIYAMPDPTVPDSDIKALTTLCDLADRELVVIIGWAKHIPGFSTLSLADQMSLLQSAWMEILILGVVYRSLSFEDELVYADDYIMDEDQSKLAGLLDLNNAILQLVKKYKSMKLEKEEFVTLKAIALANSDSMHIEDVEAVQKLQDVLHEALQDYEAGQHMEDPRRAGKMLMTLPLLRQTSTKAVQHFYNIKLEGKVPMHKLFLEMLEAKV
The data set is described as follows: full-length ERR cell-based cotransfection/reporter assay in HEK293 cells. The note with it: full-length ERR cotransfection. Background: Reporter assays use an easily measured gene product as a stand-in for the process of interest.

Data set [1] has as its system mice. The data set is described as follows: circadian locomotor activity. The data set is classed as in vivo. The note with it: drug treatment.
Data set [2] has as its system C2C12 cells. The data set is described as follows: ERR target gene. The note with it: C2C12, 24 h dose-response. Type of data set: cell-based, mouse.
The subject of data set [3] is mERRα fl/fl and mERRα−/− mice. The experiment in a line: exercise endurance in muscle-specific ERRα KO mice. Type of data set: in vivo.
The subject of the next data set is C57BL/6J mice. The experiment in a line: chronic treatment, skeletal muscle histology and protein/gene expression. The data set is classed as in vivo.
Data set [4] concerns C2C12 cells. The experiment in a line: MitoTracker Red staining of C2C12 cells. Conditions: proliferating C2C12, 10 μM, 24 h. Type of data set: cell-based, mouse.
Another data set has as its system C57BL/6J male mice. The data set is described as follows: acute single dose, Ddit4 and Slc25a25 expression in skeletal muscle. Type of data set: in vivo.
The subject of the next data set is primary mouse myocytes. The data set is described as follows: Ddit4 and Slc25a25 expression in primary myocytes. Type of data set: cell-based.
In data set [5] the test system is C2C12 cells. The data set is described as follows: Ddit4 gene expression in C2C12 myoblast cell line. Type of data set: cell-based, mouse. Conditions: C2C12, 10 μM, 1 or 3 h.
The test system of data set [6] is mice. The experiment in a line: grip strength test. The data set is classed as in vivo. Conditions: sedentary mice, 50 mg/kg, 2 weeks.
The target in a further data set is T2, ERRγ LBD (Homo sapiens, UniProt P62508).
T2 sequence (P62508 233-457 limits assumed): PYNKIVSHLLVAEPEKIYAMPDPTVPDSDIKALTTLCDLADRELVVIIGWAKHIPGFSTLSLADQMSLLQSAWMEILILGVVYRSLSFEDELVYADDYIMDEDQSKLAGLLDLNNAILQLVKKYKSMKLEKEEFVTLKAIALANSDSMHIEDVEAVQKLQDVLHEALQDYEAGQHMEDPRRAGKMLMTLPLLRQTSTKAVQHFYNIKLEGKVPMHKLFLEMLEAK
The data set is described as follows: differential scanning fluorimetry. Conditions: direct binding. (In general: DSF heats the sample and reads unfolding from a dye or from intrinsic fluorescence.)

The subject of a further data set is Gal4-ERR LBD. The data set is described as follows: Gal4-ERR LBD chimeric cotransfection assay. The data set is classed as cell-based.
The conditions of data set [7]: model of heart failure ref 38; cited from earlier work.
Data set [8] is described as follows: tolerability in mice, 10 days dosing. The data set is classed as in vivo.
For another data set, the system named is C57BL6/J mice. The data set is described as follows: exercise until exhaustion on rodent treadmill, WT mice. Type of data set: in vivo. The note with it: sedentary mice, 7 days b.i.d. i.p. 50 mg/kg, run to exhaustion.
Another data set concerns the target T3, ERRβ (Homo sapiens, UniProt O95718).
T3 sequence (O95718 1-433): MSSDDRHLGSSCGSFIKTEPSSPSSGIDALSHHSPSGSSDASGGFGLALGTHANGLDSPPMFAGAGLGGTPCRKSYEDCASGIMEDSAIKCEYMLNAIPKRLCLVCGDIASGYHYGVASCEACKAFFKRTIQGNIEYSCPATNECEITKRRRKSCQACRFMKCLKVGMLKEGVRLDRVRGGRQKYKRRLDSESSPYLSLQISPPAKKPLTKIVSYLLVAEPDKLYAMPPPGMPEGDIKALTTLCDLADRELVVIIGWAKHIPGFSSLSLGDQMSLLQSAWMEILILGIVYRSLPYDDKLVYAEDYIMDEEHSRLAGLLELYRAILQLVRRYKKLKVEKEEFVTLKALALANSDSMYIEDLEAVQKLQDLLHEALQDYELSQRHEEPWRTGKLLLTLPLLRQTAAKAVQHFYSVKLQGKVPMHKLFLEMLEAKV
The data set is described as follows: full-length ERR cell-based cotransfection/reporter assay in HEK293 cells. Conditions: read-out: ERRβ EC50.

The target in a further data set is T4, ERRα (Homo sapiens, UniProt P11474).
T4 sequence (P11474 1-423): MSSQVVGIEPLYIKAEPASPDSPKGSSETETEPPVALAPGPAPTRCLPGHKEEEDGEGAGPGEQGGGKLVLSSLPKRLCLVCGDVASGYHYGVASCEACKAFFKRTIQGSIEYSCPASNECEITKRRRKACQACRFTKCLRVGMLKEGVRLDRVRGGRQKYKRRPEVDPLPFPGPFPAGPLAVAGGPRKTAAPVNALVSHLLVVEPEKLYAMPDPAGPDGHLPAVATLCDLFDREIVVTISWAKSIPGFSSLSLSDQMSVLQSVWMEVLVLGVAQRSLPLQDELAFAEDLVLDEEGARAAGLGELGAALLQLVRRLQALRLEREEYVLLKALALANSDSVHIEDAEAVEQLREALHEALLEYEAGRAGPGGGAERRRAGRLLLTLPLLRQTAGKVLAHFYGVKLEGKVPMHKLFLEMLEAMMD
The data set is described as above.

Setting [9] is: 14 days b.i.d., i.p, 50 mg/kg, exercise until exhaustion.
The mark [10] stands for this setting: quadricep, not induced in mERRα−/−.
Setting [11] is: 50 mg/kg b.i.d., gastrocnemius muscle.

Where only a bound is given, the exact number is not on record here.

As to `CC/C(=C(\c1ccc(O)cc1)c1ccc(OCCN(C)C)cc1)c1ccccc1` [4-hydroXytamoXifen], the “inhibition of ERRγ constitutive activity” value against ERRγ was ~75%.

For the molecule `O=C(N/N=C/c1ccc2ccccc2c1)c1ccc(O)cc1` [SLU-PP-332, (E)-4-Hydroxy-N′-(naphthalen-2-ylmethylene)benzohydrazide], the circadian locomotor activity result with mice [1] is “no alterations”. Further, the “expression of Pdk4” value in the data set on C2C12 cells [2] is “clear increase”. In data set [3] (setting [9]), the “exercise endurance, mERRα fl/fl mice” value is on record as “significantly enhanced exercise endurance” and the “exercise endurance, mERRα−/− mice” value is recorded as “equivalent to vehicle-treated”. Also, in [3] (mERRα fl/fl vs mERRα−/− mice), the “upregulation of Ddit4 in quadriceps” value is listed as “observed only in mERRα^fl/fl”. For the same molecule, in data set [3] (setting [10]), the “Alas2 expression, mERRα fl/fl mice” value is on record as “significantly induced” and the “Per1 expression, mERRα fl/fl mice” value was “significantly induced”. The “oxidative muscle phenotype (SDH staining)” value in the data set on C57BL/6J mice (50 mg/kg b.i.d. i.p., 15 days, quadricep) is “greater SDH staining”. Also, the “myofiber diameter (laminin staining)” value in the data set with C57BL/6J mice (50 mg/kg b.i.d., 15 days) is given as “smaller in diameter”. In the data set on C57BL/6J mice (setting [11]), the “complex I (NDUFB8) and complex V (ATP5A) expression” value was “increase”; the “cytochrome c protein expression” value is “increase”. Further, in the data set with C57BL/6J mice (quadriceps), the “Myosin IIA protein (western blot)” value was “increased expression” and the “expression of Myh6” value is on record as “increase”. Also, in the data set on C57BL/6J mice (quadriceps, 50 mg/kg b.i.d.), the “oxidative type IIa muscle fibers” value is listed as “increased”. Besides, in the data set on C57BL/6J mice (vs vehicle-treated), the “mitochondria content (electron micrographs of quadriceps)” value is listed as “increase”. In addition, the “mitochondrial biogenesis (MitoTracker Red)” value in the data set with C2C12 cells [4] was “substantially induced”. Moreover, the “DDIT4 protein expression level” value in the data set on C57BL/6J male mice (quadricep muscle, 3 h post 50 mg/kg i.p.) was determined as 3.5 ×. Besides, the “increase in Ddit4 expression” value in the data set on C57BL/6J male mice (sedentary mice, single dose 50 mg/kg i.p., 1 h) was ~3 fold. The “increase in Ddit4 expression, drug plus exercise” value in the data set on C57BL/6J male mice (single dose 50 mg/kg i.p. and treadmill run, 1 h) is on record as ~11 fold. Also, the “increase in Slc25a25 expression” value with C57BL/6J male mice (single dose 50 mg/kg i.p., 1 h) is on record as 11 fold. In the data set with primary mouse myocytes (1 μM, 2 h), the “effect on Ddit4 expression in ERRα or ERRα/γ null myocytes” value is “lost” and the “effect on Ddit4 expression in ERRγ null myocytes” value is listed as “retained”. Moreover, the “Ddit4 expression, 2 h” value with primary mouse myocytes (primary mouse myocytes, 1 μM, 2 h) is reported as “induced”. For the same molecule, in the data set on primary mouse myocytes (primary mouse myocytes, 1 μM, 24 h), the “Ddit4 induction, 24 h” value is listed as “not observed”. In the data set on primary mouse myocytes (primary myocytes, 1 μM, 2 h), the “expression of Slc25a25” value was “induced”. In the data set on primary mouse myocytes (primary myocytes, WT vs KO), the “ERRα dependence of Slc25a25 responsiveness” value is listed as “completely ERRα-dependent”. In the data set on C2C12 cells [5], the Ddit4 gene expression entry is on record as “induced”. For the same molecule, in the data set with mice [6], the grip strength entry is “increase”. At ERRγ LBD, the “thermal stability of purified ERRγ LBD” value is “dose-dependently increased the thermal stability”. For the same molecule, the “activity at ERRs” value with Gal4-ERR LBD is given as “displayed activity at all ERRs”. In [7], the improving heart function entry is listed as “very effective”. In addition, in [8] (50 mg/kg b.i.d., i.p., 10 days), the “complete blood count and electrolyte levels” value is listed as “normal”; the overt toxicity result was “no overt toxicity”. In addition, the serum creatine kinase result in data set [8] (skeletal muscle toxicity marker) is reported as “no significant alterations”. In the data set on C57BL6/J mice, the “increase in running distance vs vehicle” value is ~45% and the “increase in running time vs vehicle” value is recorded as ~70%.

Consider `CC(C)c1ccc(/C=N/NC(=O)c2ccc(O)cc2)cc1` [GSK4716], for which the EC50 (as a rule, the concentration needed to bring the measured effect to its halfway point) was > 5 µM on ERRβ and > 5 µM at ERRα (read-out: ERRα EC50, full-length ERR, HEK293). The ERRα agonist activity entry on ERRα (ERR cotransfection assay) is “very weak agonist activity”.
